Test results reported in US20260256792A1, “TREATMENT OF CHRONIC SPONTANEOUS URTICARIA BY ADMINISTERING (R)-2-[3-[4-AMINO-3-(2-FLUORO-4-PHENOXY-PHENYL)PYRAZOLO[3,4-D]PYRIMIDIN-1-YL]PIPERIDINE-1-CARBONYL]-4-METHYL-4-[4-(OXETAN-3-YL)PIPERAZIN-1-YL]PENT-2-ENENITRILE” (priority 2023, published 2026).

Tested on: moderate-to-severe chronic spontaneous urticaria (CSU)
Test: Phase 2 CSU study: urticaria activity score over 7 days (UAS7)
Format: in vivo, human
Parameters: key to UAS7 Median / UAS7 Change from baseline Median / UAS7 change from baseline, Q1 / UAS7 change from baseline, Q3 / UAS7 change from baseline, Max / UAS7 Change from baseline LS Mean (SE): UAS7 points; daily UAS score ranges 0–6 points/day, over 7 days
Settings: for UAS7 Change from baseline LS Mean (SE) / UAS7 Post-baseline Mean (SD) / UAS7 % Change difference for rilzabrutinib vs. placebo LS Mean (95% CI) / UAS7 % Change from baseline LS Mean (SE) / UAS7 Change difference for rilzabrutinib vs. placebo LS Mean (95% CI): ITT population, 400 mg TID; for Imputed non-responder n (%), UAS7 = 0 / Imputed non-responder n (%), UAS7 ≤6 / Non-responder n (%), UAS7 = 0 / Non-responder n (%), UAS7 ≤6 / OR for rilzabrutinib vs. placebo, UAS7 = 0 / OR for rilzabrutinib vs. placebo, UAS7 ≤6 / RRD (%) for rilzabrutinib vs. placebo, UAS7 = 0 / RRD (%) for rilzabrutinib vs. placebo, UAS7 ≤6 / Responder n (%), UAS7 = 0 / Responder n (%), UAS7 ≤6: ITT, 400 mg BID
Text: The study comprises a 12 week, randomized, double-blind, placebo-controlled, multi-center, dose-ranging efficacy and safety phase, followed by a 40 week open label extension (OLE) phase (see FIG. 1). The study consists of three phases and an optional OLE phase. […] Clinically, CSU is characterized by the spontaneous and recurrent appearance of pruritic hives. The proposed primary endpoints were the UAS7 at Week 12 in EU and EU reference countries and the ISS7 in the US. Regardless of where a participant was from, all assessments were the same. The UAS7 score is a composite score containing both the HSS7 and the ISS7. This allowed a global assessment of the two key components of urticaria: hives and itch. […] The UAS is a validated PRO measure. […] The daily UAS scores range from 0 to 6 point/day. […] Patients were to complete the UAS using the e-diary. […] The following secondary endpoints were to be analyzed using the same approach as for the primary endpoint: • Change from baseline in UAS7 at Week 4 • Change from baseline in UAS7 at Week 12 (for US and US reference countries) • Change from baseline in ISS7 at Week 12 (except US and US reference countries) • Change from baseline in HSS7 at Week 12 The following responder secondary endpoints were to be analyzed using the Cochran-Mantel-Haenszel test adjusted by region: • Proportion of participants with UAS7<6 at Week 12 • Proportion of participants with UAS7=0 at Week 12 Participants who received selected prohibited medications and/or rescue medications were to be considered as non-responders for time points after the medication usage. For other participants, all available data including those collected during the off-treatment period were to be used to determine the responder/non-responder status. Missing data were to be considered as non-responders.

CC(C)(C=C(C#N)C(=O)N1CCC[C@@H](n2nc(-c3ccc(Oc4ccccc4)cc3F)c3c(N)ncnc32)C1)N1CCN(C2COC2)CC1 [rilzabrutinib, (R)-2-[3-[4-amino-3-(2-fluoro-4-phenoxy-phenyl)pyrazolo[3,4-d]pyrimidin-1-yl]piperidine-1-carbonyl]-4-methyl-4-[4-(oxetan-3-yl)piperazin-1-yl]pent-2-enenitrile]
UAS7 Change from baseline LS Mean (SE) (Week 5): −16.68
UAS7 Post-baseline Mean (SD) (Week 5): 12.72 (10.63)
UAS7 % Change difference for rilzabrutinib vs. placebo LS Mean (95% CI) (Week 6): −27.22%
UAS7 % Change from baseline LS Mean (SE) (Week 6): −54.12%
UAS7 Change difference for rilzabrutinib vs. placebo LS Mean (95% CI) (Week 6): −7.54
UAS7 Change from baseline LS Mean (SE) (Week 6): −16.68
UAS7 Post-baseline Mean (SD) (Week 6): 12.95 (11.42)
UAS7 % Change difference for rilzabrutinib vs. placebo LS Mean (95% CI) (Week 7): −25.60%
UAS7 % Change from baseline LS Mean (SE) (Week 7): −52.94%
UAS7 Change difference for rilzabrutinib vs. placebo LS Mean (95% CI) (Week 7): −7.30
UAS7 Change from baseline LS Mean (SE) (Week 7): −16.36
UAS7 Post-baseline Mean (SD) (Week 7): 13.31 (9.35)
UAS7 % Change difference for rilzabrutinib vs. placebo LS Mean (95% CI) (Week 8): −22.78%
UAS7 % Change from baseline LS Mean (SE) (Week 8): −54.62%
UAS7 Change difference for rilzabrutinib vs. placebo LS Mean (95% CI) (Week 8): −6.17
UAS7 Change from baseline LS Mean (SE) (Week 8): −16.52
UAS7 Post-baseline Mean (SD) (Week 8): 12.33 (10.15)
UAS7 % Change difference for rilzabrutinib vs. placebo LS Mean (95% CI) (Week 9): −26.48%
UAS7 % Change from baseline LS Mean (SE) (Week 9): −54.53%
UAS7 Change difference for rilzabrutinib vs. placebo LS Mean (95% CI) (Week 9): −7.09
UAS7 Change from baseline LS Mean (SE) (Week 9): −16.69
UAS7 Post-baseline Mean (SD) (Week 9): 11.76 (9.95)
UAS7 % Change difference for rilzabrutinib vs. placebo LS Mean (95% CI) (Week 10): −23.22%
UAS7 % Change from baseline LS Mean (SE) (Week 10): −56.75%
UAS7 Change difference for rilzabrutinib vs. placebo LS Mean (95% CI) (Week 10): −6.30
UAS7 Change from baseline LS Mean (SE) (Week 10): −17.20
UAS7 Post-baseline Mean (SD) (Week 10): 11.82 (10.15)
UAS7 % Change difference for rilzabrutinib vs. placebo LS Mean (95% CI) (Week 11): −25.03%
UAS7 % Change from baseline LS Mean (SE) (Week 11): −55.80%
UAS7 Change difference for rilzabrutinib vs. placebo LS Mean (95% CI) (Week 11): −6.74
UAS7 Change from baseline LS Mean (SE) (Week 11): −17.15
UAS7 Post-baseline Mean (SD) (Week 11): 12.17 (10.81)
Imputed non-responder n (%), UAS7 = 0 (Week 1): 1 (2.4) n (%)
Imputed non-responder n (%), UAS7 ≤6 (Week 1): 1 (2.4) n (%)
Non-responder n (%), UAS7 = 0 (Week 1): 38 (92.7) n (%)
Non-responder n (%), UAS7 ≤6 (Week 1): 34 (82.9) n (%)
OR for rilzabrutinib vs. placebo, UAS7 = 0 (Week 1): 3.132
OR for rilzabrutinib vs. placebo, UAS7 ≤6 (Week 1): 3.469
RRD (%) for rilzabrutinib vs. placebo, UAS7 = 0 (Week 1): 4.7 %
RRD (%) for rilzabrutinib vs. placebo, UAS7 ≤6 (Week 1): 10.3 %
Responder n (%), UAS7 = 0 (Week 1): 3 (7.3) n (%)
Responder n (%), UAS7 ≤6 (Week 1): 7 (17.1) n (%)
Imputed non-responder n (%), UAS7 = 0 (Week 2): 2 (4.9) n (%)
Imputed non-responder n (%), UAS7 ≤6 (Week 2): 2 (4.9) n (%)
Non-responder n (%), UAS7 = 0 (Week 2): 38 (92.7) n (%)
Non-responder n (%), UAS7 ≤6 (Week 2): 35 (85.4) n (%)
OR for rilzabrutinib vs. placebo, UAS7 = 0 (Week 2): 2.893
OR for rilzabrutinib vs. placebo, UAS7 ≤6 (Week 2): 2.834
RRD (%) for rilzabrutinib vs. placebo, UAS7 = 0 (Week 2): 4.2 %
RRD (%) for rilzabrutinib vs. placebo, UAS7 ≤6 (Week 2): 7.7 %
Responder n (%), UAS7 = 0 (Week 2): 3 (7.3) n (%)
Responder n (%), UAS7 ≤6 (Week 2): 6 (14.6) n (%)
Imputed non-responder n (%), UAS7 = 0 (Week 3): 1 (2.4) n (%)
Imputed non-responder n (%), UAS7 ≤6 (Week 3): 1 (2.4) n (%)
Non-responder n (%), UAS7 = 0 (Week 3): 37 (90.2) n (%)
Non-responder n (%), UAS7 ≤6 (Week 3): 31 (75.6) n (%)
OR for rilzabrutinib vs. placebo, UAS7 = 0 (Week 3): 3.857
OR for rilzabrutinib vs. placebo, UAS7 ≤6 (Week 3): 2.554
RRD (%) for rilzabrutinib vs. placebo, UAS7 = 0 (Week 3): 6.3 %
Responder n (%), UAS7 = 0 (Week 3): 4 (9.8) n (%)
Responder n (%), UAS7 ≤6 (Week 3): 10 (24.4) n (%)
Imputed non-responder n (%), UAS7 = 0 (Week 4): 4 (9.8) n (%)
Imputed non-responder n (%), UAS7 ≤6 (Week 4): 4 (9.8) n (%)
Non-responder n (%), UAS7 = 0 (Week 4): 38 (92.7) n (%)
Non-responder n (%), UAS7 ≤6 (Week 4): 28 (68.3) n (%)
OR for rilzabrutinib vs. placebo, UAS7 = 0 (Week 4): 1.278
